Key:
[1] = tested on: A549 non-small cell lung carcinoma xenograft; details: mouse, in vivo
[2] = tested on: A549 non-small cell lung carcinoma xenograft; assay: A549 non-small cell lung carcinoma xenograft, (−)-gossypol with paclitaxel; details: Table 13; paclitaxel 15 mg/kg i.p. twice q week for 3 weeks, alone
[3] = tested on: UM-SCC-23; assay: 6-day MTT cell growth, UM-SCC-23; format: cell-based, human; details: read-out: IC50, inhibition of cell growth
Experimental: (§1) UM-SCC and human fibroblast cell lines were continuously exposed to varying concentrations of (−)-gossypol in 6-day MTT cell survival assays. Control wells contained media (DMEM) with vehicle alone. For each data point n=5.
(§2) Ten squamous cell carcinoma cell lines established at the University of Michigan (UM-SCC) and three human fibroblast lines were grown in Dulbecco's modified Eagle's medium (DMEM) supplemented with 10% fetal bovine serum. UM-SCC cell lines originated from the larynx (n=2; UM-SCC-12, -23), oral cavity/oropharynx (n=5; UM-SCC-1, -6, -14A, -74B, -81B), hypopharynx (n=1; UM-SCC-22A) and metastases from laryngeal cancers (n=2; UM-SCC-17B, -25). Human fibroblast cell lines originated from surgical specimens (fibroblast cell lines 2 and 3) and neonatal foreskin samples (fibroblast cell line 1).
(§3) Logarithmically growing cell lines were cultured, washed, counted, and plated at 5,000-15,000 cells per well in duplicate wells of 96-well plates and incubated in DMEM overnight. […] The MTT assay measures cell survival based on mitochondrial conversion of MTT from a soluble tetrazolium salt into an insoluble colored formazan precipitate, which is dissolved in dimethyl sulfoxide and quantitated by spectrophotometry. […] Percent absorbance relative to control was plotted as a linear function of drug concentration.

[4] = tested on: UM-SCC-1; assay: 6-day MTT cell growth, UM-SCC-1; format: cell-based, human; details: read-out: IC50, inhibition of cell growth
Experimental: as §1, §2, §3

[5] = tested on: UM-SCC-6; assay: 6-day MTT cell growth, UM-SCC-6; format: cell-based, human; details: read-out: IC50, inhibition of cell growth
Experimental: as §1, §2, §3

[6] = tested on: UM-SCC-22A; assay: 6-day MTT cell growth, UM-SCC-22A; format: cell-based, human; details: read-out: IC50, inhibition of cell growth
Experimental: as §1, §2, §3

[7] = tested on: UM-SCC-12; assay: 6-day MTT cell growth, UM-SCC-12; format: cell-based, human; details: read-out: IC50, inhibition of cell growth
Experimental: as §1, §2, §3

[8] = tested on: UM-SCC-81B; assay: 6-day MTT cell growth, UM-SCC-81B; format: cell-based, human; details: read-out: IC50, inhibition of cell growth
Experimental: as §1, §2, §3

[9] = tested on: UM-SCC-17B; assay: 6-day MTT cell growth, UM-SCC-17B; format: cell-based, human; details: read-out: IC50, inhibition of cell growth
Experimental: as §1, §2, §3

[10] = tested on: UM-SCC-14A; assay: 6-day MTT cell growth, UM-SCC-14A; format: cell-based, human; details: read-out: IC50, inhibition of cell growth
Experimental: as §1, §2, §3

[11] = tested on: UM-SCC-74B; assay: 6-day MTT cell growth, UM-SCC-74B; format: cell-based, human; details: read-out: IC50, inhibition of cell growth
Experimental: as §1, §2, §3

[12] = tested on: UM-SCC-25; assay: 6-day MTT cell growth, UM-SCC-25; format: cell-based, human; details: read-out: IC50, inhibition of cell growth
Experimental: as §1, §2, §3

[13] = tested on: Fib-1 (fibroblast cell line 1); assay: 6-day MTT cell growth, Fib-1; format: cell-based, human; details: read-out: IC50, inhibition of cell growth
Experimental: as §1, §2, §3

[14] = tested on: Fib-2 (fibroblast cell line 2); assay: 6-day MTT cell growth, Fib-2; format: cell-based, human; details: read-out: IC50, inhibition of cell growth
Experimental: as §1, §2, §3

[15] = tested on: Fib-3 (fibroblast cell line 3); assay: 6-day MTT cell growth, Fib-3; format: cell-based, human; details: read-out: IC50, inhibition of cell growth
Experimental: as §1, §2, §3

[16] = tested on: PC-3 human prostate cancer bilateral xenografts; assay: PC-3 xenograft, (−)-gossypol alone and with cisplatin (Table 11); format: in vivo, NCr-nu nude mouse; details: mouse, in vivo
[17] = tested on: colon cancer cell line HT-29 xenograft; details: Table 12; cisplatin 10 mg/kg i.v. twice q week; most mice, during the 2nd week of treatment; dose too high

Row | weight loss [1] | SMILES | tumor growth inhibition [2] | IC50 [3] [µM] | IC50 [4] [µM] | IC50 [5] [µM] | IC50 [6] [µM] | IC50 [7] [µM] | IC50 [8] [µM] | IC50 [9] [µM] | IC50 [10] [µM] | IC50 [11] [µM] | IC50 [12] [µM] | IC50 [13] [µM] | IC50 [14] [µM] | IC50 [15] [µM] | time after CDDP treatment stopped when mice started to gain back the weight [16] | mortality in cisplatin treated group [17]
1 | There was no weight loss in mice | CC(=O)O[C@H]1C(=O)[C@@]2(C)[C@H]([C@H](OC(=O)c3ccccc3)[C@]3(O)C[C@H](OC(=O)[C@H](O)[C@@H](NC(=O)c4ccccc4)c4ccccc4)C(C)=C1C3(C)C)[C@]1(OC(C)=O)CO[C@@H]1C[C@@H]2O [Paclitaxel] | achieved about 67% tumor growth | – | – | – | – | – | – | – | – | – | – | – | – | – | – | –
2 | – | N.N.[Cl][Pt][Cl] [Cisplatin, cisplatin, reference compound] | – | 25 | 30 | > 50 | 5 | 22 | 22 | 13 | 29 | 12 | 43 | > 50 | > 50 | > 50 | to gain back the weight 1-2 weeks | mice were dead in the cisplatin

Reference: US8163805B2, “Small molecule antagonists of Bcl-2 family proteins” (The Regents of the University of Michigan, priority 2001, dated 2012)
